Test system: 653999-131-R-J2-PDC complex spheroids, growth inhibition
Experiment: Anticancer human tumor 653999-131-R-J2-PDC patient-derived lung adenocarcinoma cell line growth inhibition [RAS]
Settings: for IC50: curve of first compound; for viability, T/C: stronger effect = lower value
In short: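 Agents were tested in combination matrices in half-log decrements from a top concentration at or near clinical Cmax (10 microM if undetermined). Targets were multi-cell spheroids of tumour lines plus HUVEC and MSC stromal cells.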

[1] = second compound 0.00316 µM, first compound 0.0316 µM
[2] = second compound 0.00316 µM, first compound 0.1 µM
[3] = second compound 0.00316 µM, first compound 0.316 µM
[4] = second compound 0.00316 µM, first compound 1 µM
[5] = second compound 0.01 µM, first compound 0.0316 µM
[6] = second compound 0.01 µM, first compound 0.1 µM
[7] = second compound 0.01 µM, first compound 0.316 µM
[8] = second compound 0.01 µM, first compound 1 µM
[9] = second compound 0.0316 µM, first compound 0.0316 µM
[10] = second compound 0.0316 µM, first compound 0.1 µM
[11] = second compound 0.0316 µM, first compound 0.316 µM
[12] = second compound 0.0316 µM, first compound 1 µM
[13] = second compound 0.1 µM, first compound 0.0316 µM
[14] = second compound 0.1 µM, first compound 0.1 µM
[15] = second compound 0.1 µM, first compound 0.316 µM
[16] = second compound 0.1 µM, first compound 1 µM
[17] = second compound 0.316 µM, first compound 0.0316 µM
[18] = second compound 0.316 µM, first compound 0.1 µM
[19] = second compound 0.316 µM, first compound 0.316 µM
[20] = second compound 0.316 µM, first compound 1 µM
[21] = second compound 1 µM, first compound 0.0316 µM
[22] = second compound 1 µM, first compound 0.1 µM
[23] = second compound 1 µM, first compound 0.316 µM
[24] = second compound 1 µM, first compound 1 µM
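Also: spheroids exposed to the agents for seven days before the readout.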

## C=CC(=O)N1CCN(c2nc(OCC3CCCN3C)nc3c(F)c(-c4nc(N)cc(C)c4C(F)(F)F)c(Cl)cc23)C(C)C1 (stereo unspecified) + CCn1c(-c2cccnc2C(C)OC)c2c3cc(ccc31)N1CCOC(CC(NC(=O)C(C(C)C)N(C)C(=O)C3(F)CCN(C(=O)C#CC(C)(C)N(C)C)CC3)C(=O)N3CCCC(N3)C(=O)OCC(C)(C)C2)C1
Second compound 0.000949 µM
  IC50: > 1 µM
Second compound 0.003 µM
  IC50: > 1 µM
Second compound 0.00949 µM
  IC50: > 1 µM
Second compound 0.03 µM
  IC50: > 1 µM
Second compound 0.0949 µM
  IC50: > 1 µM
Second compound 0.3 µM
  IC50: > 1 µM
Second compound 0.000949 µM, first compound 0.00316 µM
  viability, T/C: 94.1%
Second compound 0.000949 µM, first compound 0.01 µM
  viability, T/C: 103%
Second compound 0.000949 µM, first compound 0.0316 µM
  viability, T/C: 101%
Second compound 0.000949 µM, first compound 0.1 µM
  viability, T/C: 98.3%
Second compound 0.000949 µM, first compound 0.316 µM
  viability, T/C: 103%
Second compound 0.000949 µM, first compound 1 µM
  viability, T/C: 91.5%
Second compound 0.003 µM, first compound 0.00316 µM
  viability, T/C: 113%
Second compound 0.003 µM, first compound 0.01 µM
  viability, T/C: 101%
Second compound 0.003 µM, first compound 0.0316 µM
  viability, T/C: 102%
Second compound 0.003 µM, first compound 0.1 µM
  viability, T/C: 98.9%
Second compound 0.003 µM, first compound 0.316 µM
  viability, T/C: 99.8%
Second compound 0.003 µM, first compound 1 µM
  viability, T/C: 104%
Second compound 0.00949 µM, first compound 0.00316 µM
  viability, T/C: 93.2%
Second compound 0.00949 µM, first compound 0.01 µM
  viability, T/C: 104%
Second compound 0.00949 µM, first compound 0.0316 µM
  viability, T/C: 102%
Second compound 0.00949 µM, first compound 0.1 µM
  viability, T/C: 96.9%
Second compound 0.00949 µM, first compound 0.316 µM
  viability, T/C: 109%
Second compound 0.00949 µM, first compound 1 µM
  viability, T/C: 106%
Second compound 0.03 µM, first compound 0.00316 µM
  viability, T/C: 102%
Second compound 0.03 µM, first compound 0.01 µM
  viability, T/C: 99.2%
Second compound 0.03 µM, first compound 0.0316 µM
  viability, T/C: 104%
Second compound 0.03 µM, first compound 0.1 µM
  viability, T/C: 91.6%
Second compound 0.03 µM, first compound 0.316 µM
  viability, T/C: 114%
Second compound 0.03 µM, first compound 1 µM
  viability, T/C: 101%
Second compound 0.0949 µM, first compound 0.00316 µM
  viability, T/C: 84.2%
Second compound 0.0949 µM, first compound 0.01 µM
  viability, T/C: 107%
Second compound 0.0949 µM, first compound 0.0316 µM
  viability, T/C: 112%
Second compound 0.0949 µM, first compound 0.1 µM
  viability, T/C: 107%
Second compound 0.0949 µM, first compound 0.316 µM
  viability, T/C: 108%
Second compound 0.0949 µM, first compound 1 µM
  viability, T/C: 102%
Second compound 0.3 µM, first compound 0.00316 µM
  viability, T/C: 103%
Second compound 0.3 µM, first compound 0.01 µM
  viability, T/C: 98.9%
Second compound 0.3 µM, first compound 0.0316 µM
  viability, T/C: 111%
Second compound 0.3 µM, first compound 0.1 µM
  viability, T/C: 108%
Second compound 0.3 µM, first compound 0.316 µM
  viability, T/C: 104%
Second compound 0.3 µM, first compound 1 µM
  viability, T/C: 96.8%

## CC(C)NCC(C(=O)N1CCN(c2ncnc3c2C(C)CC3O)CC1)c1ccc(Cl)cc1 (stereo unspecified) + C=CC(=O)N1CCN(c2nc(OCC3CCCN3C)nc3c(F)c(-c4nc(N)cc(C)c4C(F)(F)F)c(Cl)cc23)C(C)C1
Second compound 0.00316 µM
  IC50: 1.31 µM
Second compound 0.01 µM
  IC50: 1.96 µM
Second compound 0.0316 µM
  IC50: 1.41 µM
Second compound 0.1 µM
  IC50: 1.54 µM
Second compound 0.316 µM
  IC50: 1.5 µM
Second compound 1 µM
  IC50: 0.927 µM
[1]
  viability, T/C: 116%
[2]
  viability, T/C: 104%
[3]
  viability, T/C: 96.6%
[4]
  viability, T/C: 52%
Second compound 0.00316 µM, first compound 3.16 µM
  viability, T/C: 41.7%
Second compound 0.00316 µM, first compound 10 µM
  viability, T/C: 40.8%
[5]
  viability, T/C: 89.6%
[6]
  viability, T/C: 100%
[7]
  viability, T/C: 69.1%
[8]
  viability, T/C: 61.1%
Second compound 0.01 µM, first compound 3.16 µM
  viability, T/C: 44.2%
Second compound 0.01 µM, first compound 10 µM
  viability, T/C: 40.9%
[9]
  viability, T/C: 98.6%
[10]
  viability, T/C: 97.3%
[11]
  viability, T/C: 73.9%
[12]
  viability, T/C: 54%
Second compound 0.0316 µM, first compound 3.16 µM
  viability, T/C: 43.6%
Second compound 0.0316 µM, first compound 10 µM
  viability, T/C: 35.5%
[13]
  viability, T/C: 104%
[14]
  viability, T/C: 95.1%
[15]
  viability, T/C: 76.2%
[16]
  viability, T/C: 52.9%
Second compound 0.1 µM, first compound 3.16 µM
  viability, T/C: 45.1%
Second compound 0.1 µM, first compound 10 µM
  viability, T/C: 37.7%
[17]
  viability, T/C: 90.2%
[18]
  viability, T/C: 95.9%
[19]
  viability, T/C: 82.6%
[20]
  viability, T/C: 53.8%
Second compound 0.316 µM, first compound 3.16 µM
  viability, T/C: 44.8%
Second compound 0.316 µM, first compound 10 µM
  viability, T/C: 39.6%
[21]
  viability, T/C: 98.9%
[22]
  viability, T/C: 87.7%
[23]
  viability, T/C: 81.5%
[24]
  viability, T/C: 46.9%
Second compound 1 µM, first compound 3.16 µM
  viability, T/C: 43.5%
Second compound 1 µM, first compound 10 µM
  viability, T/C: 41.1%

## C=CC(=O)Nc1cc(Nc2nccc(-c3cn(C)c4ccccc34)n2)c(OC)cc1N(C)CCN(C)C + C=CC(=O)N1CCN(c2nc(OCC3CCCN3C)nc3c(F)c(-c4nc(N)cc(C)c4C(F)(F)F)c(Cl)cc23)C(C)C1
Second compound 0.00316 µM
  IC50: 0.838 µM
Second compound 0.01 µM
  IC50: > 1 µM
Second compound 0.0316 µM
  IC50: > 1 µM
Second compound 0.1 µM
  IC50: > 1 µM
Second compound 0.316 µM
  IC50: 0.894 µM
Second compound 1 µM
  IC50: > 1 µM
Second compound 0.00316 µM, first compound 0.00316 µM
  viability, T/C: 104%
Second compound 0.00316 µM, first compound 0.01 µM
  viability, T/C: 90.8%
[1]
  viability, T/C: 95.3%
[2]
  viability, T/C: 94.9%
[3]
  viability, T/C: 70.3%
[4]
  viability, T/C: 46.3%
Second compound 0.01 µM, first compound 0.00316 µM
  viability, T/C: 94.1%
Second compound 0.01 µM, first compound 0.01 µM
  viability, T/C: 83.7%
[5]
  viability, T/C: 79.5%
[6]
  viability, T/C: 100%
[7]
  viability, T/C: 57.9%
[8]
  viability, T/C: 56%
Second compound 0.0316 µM, first compound 0.00316 µM
  viability, T/C: 113%
Second compound 0.0316 µM, first compound 0.01 µM
  viability, T/C: 100%
[9]
  viability, T/C: 95.3%
[10]
  viability, T/C: 69.6%
[11]
  viability, T/C: 59.2%
[12]
  viability, T/C: 59.4%
Second compound 0.1 µM, first compound 0.00316 µM
  viability, T/C: 108%
Second compound 0.1 µM, first compound 0.01 µM
  viability, T/C: 86.8%
[13]
  viability, T/C: 89.5%
[14]
  viability, T/C: 77.5%
[15]
  viability, T/C: 69.6%
[16]
  viability, T/C: 52.7%
Second compound 0.316 µM, first compound 0.00316 µM
  viability, T/C: 100%
Second compound 0.316 µM, first compound 0.01 µM
  viability, T/C: 107%
[17]
  viability, T/C: 98.8%
[18]
  viability, T/C: 70.8%
[19]
  viability, T/C: 67.7%
[20]
  viability, T/C: 46%
Second compound 1 µM, first compound 0.00316 µM
  viability, T/C: 105%
Second compound 1 µM, first compound 0.01 µM
  viability, T/C: 104%
[21]
  viability, T/C: 94.2%
[22]
  viability, T/C: 67%
[23]
  viability, T/C: 58.6%
[24]
  viability, T/C: 55.9%

Reference: PubChem BioAssay AID2060886 (Molecular Pharmacology Branch, DTP, NCI, 2025)
